Experimental data: US20220411419A1, “SMALL MOLECULE MODULATORS OF MHC-I” (RetroVirox, Inc., priority 2018, published 2022)
Like-named read-outs stand apart in the source and are kept apart here.

How the values were obtained:
[1] = tested on: MHC-I surface expression in uninfected SupT1 cells; assay: Increase of MHC-I surface expression in uninfected SupT1 cells (mean-MHC-I EC50, FIG. 6A); format: cell-based; conditions: Homo sapiens, SUP-T1, 24 h with compound, read-out: EC50 for MHC-I increased surface expression
Method: In some instances, the effect of small molecules in modulation of surface MHC-I was monitored in uninfected (rather than HIV-infected) Sup-T1 cells (FIG. 6A). In these experiments uninfected SupT1 cells were incubated with the compounds for 24 h and then the increase in MHC-I surface expression was monitored by staining cells with the biotinylated HLA-A2/28 antibody (One Lambda, clone BIH0037), washed and then incubated with streptavidin conjugated with APC (Streptavidin APC, EBiosciences, 17-4317) to reveal the anti-HLA-A2 bound antibody. After washing the cells again they were fixed with 0.5% paraformaldehyde and submitted to flow cytometry to determine the levels of MHC-I surface expression (APC fluorescence) in live cells (as estimated by FS/SS in these cells). […] From these assays “mean-MHC-I” EC50 values were generated to indicate the concentration of compound that augments the mean surface levels of MHC-I to 50% of the highest levels accomplished by the compound, as compared to cells treated with vehicle alone. […] Therefore, both assays: inhibition of MHC-I downmodulation in HIV infected SupT1 cells, or increase in surface MHC-I in uninfected SupT1 cells, were indistinctively used to monitor the potency of the compounds to modulate surface expression of MHC-I in SupT1 cells.
Table 7 show the activity of selected compounds utilizing the assay in which the increase of MHC-I surface expression in uninfected SupT1 cells was evaluated, as shown in FIG. 6A. The EC50 for MHC-I increased surface expression was determined using the methods described in Example 2 and illustrated in FIG. 6A.

[2] = in vitro; conditions: human, uninfected SupT1 cells
[3] = tested on: surface MHC-I in uninfected SupT1 cells (GFP-negative); assay: Surface MHC-I in GFP-negative (uninfected) SupT1 cells of cultures treated with HIV-1 (FIG. 4); format: cell-based; conditions: dose-dependent
Method: FIG. 4 represents the levels of expression of surface MHC-I in uninfected SupT1 cells (GFP-negative) incubated with vehicle alone (0.1% DMSO) or with compounds #40, #53, #54, #56 or #100 at different concentrations. Values are shown as the percentage of the MHC-I expression observed in cells treated with 0.1% DMSO alone. All samples were incubated with HIV-1 reporter virus (NL4.3-GFP) except those shown as ΔNef, which are shown for reference and were treated with nef-defective virus.
To determine whether the inhibitors of MHC-I downmodulation are specific for HIV infection a study to determine whether the compounds also interfere with expression of MHC-I in uninfected cells was undertaken. The effect of the same compounds was evaluated in SupT-1 cells treated with HIV-1 as shown before, but this time the levels of expression of MHC-I were obtained in GFP-negative cells (FIG. 4). […] The increase was dose-dependent and compounds elevated MHC-I levels by as much as 70% (as compared to cells treated with vehicle alone).

[4] = tested on: downmodulation of MHC-I molecules expressed on the surface of HIV infected SupT1 cells; conditions: 100 nM compound
[5] = tested on: downmodulation of MHC-I molecules expressed on the surface of HIV infected SupT1 cells; assay: cells; conditions: for activity at 100 µM: Human immunodeficiency virus 1, SUP-T1, read-out: R1 @ 100 μM (R1 value for MHC-I downmodulation as % of the vehicle control)
[6] = Human immunodeficiency virus 1, SUP-T1, read-out: EC50 for inhibition of MHC-I downmodulation utilizing the R1 parameter
[7] = Human immunodeficiency virus 1, SUP-T1, 24 h, read-out: EC50 for R1 (inhibition of MHC-I downmodulation)

With `CC1(C)Cc2cccc(OC(Cc3ccccc3)C(=O)Nc3nc4c(s3)CCCC4)c2O1` (racemic) [Compound 171, (±)-2-((2,2-Dimethyl-2,3-dihydrobenzofuran-7-yl)oxy)-3-phenyl-N-(4,5,6,7-tetrahydrobenzo[d]thiazol-2-yl)propanamide] the EC50 [1] was 6200 nM and the CC50 [2] was > 125000 nM.
In the case of `Cc1nc(NC(=O)C(Cc2ccccc2)Oc2cccc3c2OC(C)(C)C3)ccc1C1CC1` (racemic) [Compound 172, (±)-N-(5-Cyclopropyl-6-methylpyridin-2-yl)-2-((2,2-dimethyl-2,3-dihydrobenzofuran-7-yl)oxy)-3-phenylpropanamide], the EC50 [1] is reported as 8400 nM and the CC50 [2] is reported as > 125000 nM.
For `Cc1ccc(CN(C(=O)COc2cccc3c2OC(C)(C)C3)c2nc3c(s2)CCCC3)nc1` [Compound 40, 2-((2,2-Dimethyl-2,3-dihydrobenzofuran-7-yl)oxy)-N-((5-methylpyridin-2-yl)methyl)-N-(4,5,6,7-tetrahydrobenzo[d]thiazol-2-yl)acetamide], the “surface levels of MHC-I in uninfected cells” value (“surface levels of MHC-I” for short) [3] was “increased the surface levels of MHC-I in uninfected cells”, the “viability of the cell culture (estimated by FS/SS)” value ([4]; FIG. 2G) was “nor the viability of the cell culture (estimated by FS/SS) was affected” and the “R4 values lower than in cells treated with DMSO only” value ([4]; SupT1 cells infected with wild-type virus) was “approximately 10 fold”. The EC50 [5, 6] was 8 nM and the CC50 at 48 h [2] was > 100000 nM.
In the case of `CN(C(=O)COc1cccc2c1OC(C)(C)C2)c1nc2c(s1)CCCC2` [Compound 53, 2-((2,2-Dimethyl-2,3-dihydrobenzofuran-7-yl)oxy)-N-methyl-N-(4,5,6,7-tetrahydrobenzo[d]thiazol-2-yl)acetamide], the EC50 [1] is reported as 12 nM, the “surface levels of MHC-I” value [3] is reported as “increased the surface levels of MHC-I in uninfected cells” and the EC50 [5, 6] is reported as 3 nM. For the same compound, the CC50 [2] was > 125000 nM and the CC50 at 48 h [2] was > 125000 nM.
With `CCN(C(=O)COc1cccc2c1OC(C)(C)C2)c1nc2c(s1)CCCC2` [Compound 54, 2-((2,2-Dimethyl-2,3-dihydrobenzofuran-7-yl)oxy)-N-ethyl-N-(4,5,6,7-tetrahydrobenzo[d]thiazol-2-yl)acetamide] the EC50 [1] was 9 nM, the “surface levels of MHC-I” value [3] was “increased the surface levels of MHC-I in uninfected cells” and the EC50 [5, 6] was 8 nM. The CC50 [2] was > 125000 nM and the CC50 at 48 h [2] was > 125000 nM.
With `C=CCN(C(=O)COc1cccc2c1OC(C)(C)C2)c1nc2c(s1)CCCC2` [Compound 56, N-Allyl-2-((2,2-dimethyl-2,3-dihydrobenzofuran-7-yl)oxy)-N-(4,5,6,7-tetrahydrobenzo[d]thiazol-2-yl)acetamide] the EC50 [1] was 6 nM, the “surface levels of MHC-I” value [3] was “increased the surface levels of MHC-I in uninfected cells” and the EC50 [5, 7] was ~1 nM. The EC50 [5, 6] was 1 nM, the CC50 [2] was > 125000 nM and the CC50 at 48 h [2] was > 125000 nM.
With `CC1(C)Cc2cccc(OCC(=O)Nc3nc4c(C#N)cccc4s3)c2O1` [Compound 100, N-(4-cyanobenzo[d]thiazol-2-yl)-2-((2,2-dimethyl-2,3-dihydrobenzofuran-7-yl)oxy)acetamide] the “surface levels of MHC-I” value [3] was “increased the surface levels of MHC-I in uninfected cells”, the EC50 [5, 7] was 70 nM and the EC50 [5, 6] was 70 nM. It also gave a CC50 at 48 h [2] of 100 nM.
With `CC1(C)Cc2cccc(OCC(=O)N(CC(F)(F)F)c3nc4c(s3)CCCC4)c2O1` [Compound 164, 2-((2,2-Dimethyl-2,3-dihydrobenzofuran-7-yl)oxy)-N-(4,5,6,7-tetrahydrobenzo[d]thiazol-2-yl)-N-(2,2,2-trifluoroethyl)acetamide] the EC50 [1] was 26 nM and the CC50 [2] was > 125000 nM.
In the case of `O=C(COc1cccc2[nH]ccc12)N(CC(F)(F)F)c1nc2c(s1)CCCC2` [Compound 165, 2-((1H-Indol-4-yl)oxy)-N-(4,5,6,7-tetrahydrobenzo[d]thiazol-2-yl)-N-(2,2,2-trifluoroethyl)acetamide], the EC50 [1] is reported as 1000 nM and the CC50 [2] is reported as > 125000 nM.
In the case of `CC1(C)Cc2cccc(OCC(=O)N(CC(F)(F)F)c3nc4c(s3)COCC4)c2O1` [Compound 166, N-(6,7-Dihydro-4H-pyrano[4,3-d]thiazol-2-yl)-2-((2,2-dimethyl-2,3-dihydrobenzofuran-7-yl)oxy)-N-(2,2,2-trifluoroethyl)acetamide], the EC50 [1] is reported as 200 nM and the CC50 [2] is reported as > 125000 nM.
For `Cc1nc(NC(=O)COc2cccc3c2OC(C)(C)C3)ccc1C1CC1` [Compound 167, N-(5-Cyclopropyl-6-methylpyridin-2-yl)-2-((2,2-dimethyl-2,3-dihydrobenzofuran-7-yl)oxy)acetamide], the EC50 [1] was 470 nM and the CC50 [2] was > 125000 nM.
For `Cc1nc(NC(=O)COc2cccc3c2OC(C)(C)C3)ccc1C#N` [Compound 168, N-(5-Cyano-6-methylpyridin-2-yl)-2-((2,2-dimethyl-2,3-dihydrobenzofuran-7-yl)oxy)acetamide], the EC50 [1] was > 25000 nM and the CC50 [2] was > 125000 nM.
With `Cc1cc(C)nc(NC(=O)COc2cccc3c2OC(C)(C)C3)c1` [Compound 169, 2-((2,2-Dimethyl-2,3-dihydrobenzofuran-7-yl)oxy)-N-(4,6-dimethylpyridin-2-yl)acetamide] the EC50 [1] was > 25000 nM and the CC50 [2] was > 125000 nM.
With `Cc1cccnc1CN(C(=O)COc1cccc2c1OC(C)(C)C2)c1ccc(C2CC2)c(C)n1` [Compound 170, N-(5-Cyclopropyl-6-methylpyridin-2-yl)-2-((2,2-dimethyl-2,3-dihydrobenzofuran-7-yl)oxy)-N-((3-methylpyridin-2-yl)methyl)acetamide] the EC50 [1] was 1000 nM and the CC50 [2] was > 125000 nM.
With `CC1(C)Cc2cc(C(F)(F)F)cc(OCC(=O)Nc3nc4c(s3)CCCC4)c2O1` [Compound 173, 2-((2,2-Dimethyl-5-(trifluoromethyl)-2,3-dihydrobenzofuran-7-yl)oxy)-N-(4,5,6,7-tetrahydrobenzo[d]thiazol-2-yl)acetamide] the EC50 [1] was 2500 nM and the CC50 [2] was > 125000 nM.
With `Cc1nc(NC(=O)COc2cc(C(F)(F)F)cc3c2OC(C)(C)C3)ccc1C1CC1` [Compound 174, N-(5-Cyclopropyl-6-methylpyridin-2-yl)-2-((2,2-dimethyl-5-(trifluoromethyl)-2,3-dihydrobenzofuran-7-yl)oxy)acetamide] the EC50 [1] was 2500 nM and the CC50 [2] was > 125000 nM.
For `COc1ccccc1OCC(=O)Nc1nc(C)cs1` [Compound 190, 2-(2-Methoxyphenoxy)-N-(4-methylthiazol-2-yl)acetamide], the EC50 [5, 6] was > 25000 nM, the activity at 100 µM [5] was 34% and the CC50 [2] was > 100000 nM. The CC50 at 48 h [2] was > 100000 nM.
For `COc1ccccc1OCC(=O)Nc1nc2cc(C)c(C)cc2s1` [Compound 191, N-(5,6-Dimethylbenzo[d]thiazol-2-yl)-2-(2-methoxyphenoxy)acetamide], the EC50 [5, 6] was > 25000 nM, the activity at 100 µM [5] was 62% and the CC50 [2] was > 100000 nM. For the same compound, the CC50 at 48 h [2] was > 100000 nM.
For `COc1ccccc1OCC(=O)Nc1nc2c(F)cccc2s1` [Compound 192, N-(4-Fluorobenzo[d]thiazol-2-yl)-2-(2-methoxyphenoxy)acetamide], the EC50 [5, 6] was 1800 nM and the CC50 at 48 h [2] was > 10000 nM.
With `COc1ccccc1OCC(=O)Nc1nc2c(Br)cccc2s1` [Compound 193, N-(4-Bromobenzo[d]thiazol-2-yl)-2-(2-methoxyphenoxy)acetamide] the EC50 [5, 6] was > 25000 nM, the activity at 100 µM [5] was 58% and the CC50 [2] was > 90000 nM. For the same compound, the CC50 at 48 h [2] was > 90000 nM.
With `COc1ccccc1CCC(=O)Nc1nc2c(s1)CCCC2` [Compound 194, 3-(2-Methoxyphenyl)-N-(4,5,6,7-tetrahydrobenzo[d]thiazol-2-yl) propanamide] the EC50 [5, 6] was 1700 nM and the CC50 at 48 h [2] was 125000 nM.
With `CC1(C)Cc2cccc(OCC(=O)Nc3nc4c(s3)CCCC4)c2O1` [Compound 195, 2-((2,2-Dimethyl-2,3-dihydrobenzofuran-7-yl)oxy)-N-(4,5,6,7-tetrahydrobenzo[d]thiazol-2-yl)acetamide] the EC50 [5, 6] was 53 nM and the CC50 at 48 h [2] was > 125000 nM.
For `COc1ccccc1OCC(=O)Nc1nc2cc(F)ccc2s1` [Compound 196, N-(5-Fluorobenzo[d]thiazol-2-yl)-2-(2-methoxyphenoxy)acetamide], the EC50 [5, 6] was > 25000 nM, the activity at 100 µM [5] was 31% and the CC50 [2] was > 100000 nM. For the same compound, the CC50 at 48 h [2] was > 100000 nM.
